Assay results: patent publication US9533985B2, “Sulfonamide derivative and medicinal use thereof” (EA Pharma Co., Ltd., priority 2012, dated 2017)
pIC50: −log10 of the molar value.

Target: α4β7 integrin (Homo sapiens (Human), UniProt P13612+P26010)
Test: MAdCAM-1/α4β7 integrin binding inhibitory activity evaluation test in the presence of serum (2)
Type: cell-based
Settings: RPMI-8866 cells binding to mouse MAdCAM-1/Fc, same manner as Test (3), read-out: α4β7 Rank of activity with serum added
Protocol: The ability of test substances to inhibit the binding of a human B cell line, RPMI-8866, which is known to express α4β7 integrin, to MAdCAM-1 was measured.
To 96-well microtiter plates, recombinant mouse MAdCAM-1/Fc (R&D systems) solution (1 μg/mL) diluted with buffer A (carbonate buffer, pH 9.6) was added at 50 μL/well, followed by incubation at 4° C. overnight. After washing once with PBS, Block Ace (Snow Brand Milk Products Company, Limited) was added at 150 μL/well, followed by incubation at room temperature for 2 hours. After removal, washing was conducted once with PBS.
100 μL of each test substance diluted with a binding buffer (DMEM containing 40 mM HEPES, 0.2% BSA, and 4 mM MnCl2) to various concentrations and 100 μL of RPMI-8866 cells (2×10^6 cell/mL) were added to plates coated with MAdCAM-1/Fc (5×10^5 cells/well) with human serum being contained at a final concentration of 50%, followed by incubation at 30° C. for 15 minutes to 60 minutes. After the cells were bound to each well, unbound cells were removed by washing with PBS. To the plates, buffer C (PBS containing 1.5% Triton X-100) was added at 50 μL/well to lyse the bound RPMI-8866 cells. To 30 μL of the cell lysate, 30 μL of Substrate Buffer (Promega, CytoTox 96 Non-Radioactive Cytotoxicity Assay) was added, and the reaction was allowed to proceed at room temperature in a dark place for 30 minutes. To each well, 30 μL of Stop Solution (Promega, CytoTox 96 Non-Radioactive Cytotoxicity Assay) was added, and the absorbance at 490 nm was measured by using a plate reader. Here, by the obtained absorbance, the activity of the lactate dehydrogenase (LDH) dissolved into the supernatant of each well was detected. In other words, the absorbance was proportional to the number of the RPMI-8866 cells bound to MAdCAM-1 and remaining on the plate. The test was duplicated. The binding ratios of the cells at various concentrations were determined, with the absorbance of a well containing no test substance taken as 100%. Then, the concentration IC50, at which 50% binding inhibition was achieved, was calculated.
The MAdCAM-1/α4β7 integrin binding inhibitory activity in the presence of serum was measured in the same manner as in Test (3) described above. […] The VCAM-1/α4β1 integrin binding inhibitory activity evaluation test and the MAdCAM-1/α4β7 integrin binding inhibitory activity evaluation test were carried out according to the methods described in Tests (1) and (2) described above.

α4β7 integrin, sequence (P13612 34-1032): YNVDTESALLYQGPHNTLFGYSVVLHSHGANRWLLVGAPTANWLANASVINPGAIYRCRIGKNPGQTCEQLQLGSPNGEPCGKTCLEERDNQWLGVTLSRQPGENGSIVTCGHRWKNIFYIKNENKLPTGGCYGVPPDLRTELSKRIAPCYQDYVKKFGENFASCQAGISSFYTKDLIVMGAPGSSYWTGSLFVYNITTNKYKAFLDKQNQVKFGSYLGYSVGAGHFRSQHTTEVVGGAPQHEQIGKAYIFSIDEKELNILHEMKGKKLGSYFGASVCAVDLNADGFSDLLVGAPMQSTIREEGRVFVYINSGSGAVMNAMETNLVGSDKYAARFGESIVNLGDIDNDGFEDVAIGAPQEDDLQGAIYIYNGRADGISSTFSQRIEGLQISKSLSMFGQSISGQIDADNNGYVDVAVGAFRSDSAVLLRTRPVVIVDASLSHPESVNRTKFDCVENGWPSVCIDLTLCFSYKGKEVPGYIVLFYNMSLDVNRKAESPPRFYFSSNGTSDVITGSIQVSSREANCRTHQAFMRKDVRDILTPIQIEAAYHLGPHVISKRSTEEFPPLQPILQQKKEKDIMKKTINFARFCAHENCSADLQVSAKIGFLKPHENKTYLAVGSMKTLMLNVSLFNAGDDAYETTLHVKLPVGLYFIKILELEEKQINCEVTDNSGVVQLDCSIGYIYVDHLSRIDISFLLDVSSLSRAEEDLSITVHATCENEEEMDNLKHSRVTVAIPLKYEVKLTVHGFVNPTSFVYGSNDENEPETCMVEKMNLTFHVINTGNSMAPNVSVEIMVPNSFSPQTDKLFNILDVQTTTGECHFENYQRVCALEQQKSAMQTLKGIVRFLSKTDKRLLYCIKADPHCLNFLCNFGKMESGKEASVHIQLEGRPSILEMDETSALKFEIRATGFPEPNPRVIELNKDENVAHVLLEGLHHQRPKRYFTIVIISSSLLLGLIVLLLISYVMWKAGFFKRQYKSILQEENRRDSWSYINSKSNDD
α4β7 integrin, sequence (P26010 20-798): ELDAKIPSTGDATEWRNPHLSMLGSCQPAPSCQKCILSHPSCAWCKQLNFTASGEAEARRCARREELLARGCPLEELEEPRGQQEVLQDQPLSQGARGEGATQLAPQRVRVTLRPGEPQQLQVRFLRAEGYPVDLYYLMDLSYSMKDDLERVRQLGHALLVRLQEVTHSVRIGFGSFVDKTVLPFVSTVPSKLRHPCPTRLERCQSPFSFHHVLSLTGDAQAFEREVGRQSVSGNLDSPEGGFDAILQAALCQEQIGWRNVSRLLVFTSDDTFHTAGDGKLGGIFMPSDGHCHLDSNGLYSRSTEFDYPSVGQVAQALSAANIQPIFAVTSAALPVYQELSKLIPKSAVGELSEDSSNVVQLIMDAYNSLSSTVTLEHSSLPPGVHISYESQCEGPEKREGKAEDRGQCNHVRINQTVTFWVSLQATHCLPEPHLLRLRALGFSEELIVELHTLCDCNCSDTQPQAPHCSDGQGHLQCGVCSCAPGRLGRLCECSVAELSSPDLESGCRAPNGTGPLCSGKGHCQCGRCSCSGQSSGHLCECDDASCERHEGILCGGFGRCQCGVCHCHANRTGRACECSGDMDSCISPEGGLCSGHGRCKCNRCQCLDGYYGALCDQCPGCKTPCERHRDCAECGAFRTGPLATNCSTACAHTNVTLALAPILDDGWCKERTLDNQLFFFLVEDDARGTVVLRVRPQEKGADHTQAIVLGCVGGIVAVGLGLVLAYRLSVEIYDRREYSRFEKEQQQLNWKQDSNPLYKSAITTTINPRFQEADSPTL

SMILES | pIC50
Cn1c(=O)n(-c2ccc(C[C@H](NC(=O)c3cc(F)c(NS(=O)(=O)c4ccc(-c5cc(F)cc(F)c5)cc4)cc3F)C(=O)O)nc2)c(=O)c2ccncc21 [Example 235, N-(4-{[(3′,5′-Difluorobiphenyl-4-yl)sulfonyl]amino}-2,5-difluorobenzoyl)-3-[5-(1-methyl-2,4-dioxo-1,4-dihydropyrido[3,4-d]pyrimidin-3(2H)-yl)pyridin-2-yl]-L-alanine] | < 6.70
COc1ccccc1S(=O)(=O)Nc1cc(F)c(C(=O)N[C@@H](Cc2ccc(-n3c(=O)c4ccncc4n(C)c3=O)cc2)C(=O)O)c(F)c1 [Example 143, N-(2,6-Difluoro-4-{[(2-methoxyphenyl)sulfonyl]amino}benzoyl)-4-(1-methyl-2,4-dioxo-1,4-dihydropyrido[3,4-d]pyrimidin-3(2H)-yl)-L-phenylalanine] | ≥ 8.00
Cn1c(=O)n(-c2ccc(C[C@H](NC(=O)c3cc(F)c(NS(=O)(=O)c4ccco4)cc3F)C(=O)O)cn2)c(=O)c2ccncc21 [Example 150, N-{2,5-Difluoro-4-[(2-furylsulfonyl)amino]benzoyl}-3-[6-(1-methyl-2,4-dioxo-1,4-dihydropyrido[3,4-d]pyrimidin-3(2H)-yl)pyridin-3-yl]-L-alanine] | 7.30 to 8.00
Cn1ccc(=O)n(-c2ccc(C[C@H](NC(=O)c3c(F)cc(NS(=O)(=O)c4ccc(C(=O)NCC5CCOCC5)cc4)cc3F)C(=O)O)cc2)c1=O [Example 172, N-(2,6-Difluoro-4-{[(4-{[(tetrahydro-2H-pyran-4-yl-methyl)amino]carbonyl}phenyl)sulfonyl]amino}benzoyl)-4-(3-methyl-2,6-dioxo-3,6-dihydropyrimidin-1(2H)-yl)-L-phenylalanine] | ≥ 8.00
Cn1c(=O)n(-c2ccc(C[C@H](NC(=O)c3cc(F)c(NS(=O)(=O)c4ccccc4)cc3F)C(=O)O)nc2)c(=O)c2ccncc21 [Example 137, N-{2,5-Difluoro-4-[(phenylsulfonyl)amino]benzoyl}-3-[5-(1-methyl-2,4-dioxo-1,4-dihydropyrido[3,4-d]pyrimidin-3(2H)-yl)pyridin-2-yl]-L-alanine] | 6.70 to 7.30
CCc1ncc(-c2ccc(S(=O)(=O)Nc3cc(F)c(C(=O)N[C@@H](Cc4ccc(-n5c(=O)c6ccncc6n(C)c5=O)cc4)C(=O)O)cc3F)cc2)cn1 [Example 237, N-[4-({[4-(2-Ethylpyrimidin-5-yl)phenyl]sulfonyl}amino)-2,5-difluorobenzoyl]-4-(1-methyl-2,4-dioxo-1,4-dihydropyrido[3,4-d]pyrimidin-3(2H)-yl)-L-phenylalanine] | 7.30 to 8.00
Cn1c(=O)n(-c2ccc(C[C@H](NC(=O)c3ncc(NS(=O)(=O)c4ccco4)cc3F)C(=O)O)cc2)c(=O)c2ccncc21 [Example 183, N-({3-Fluoro-5-[(2-furylsulfonyl)amino]pyridin-2-yl}carbonyl)-4-(1-methyl-2,4-dioxo-1,4-dihydropyrido[3,4-d]pyrimidin-3(2H)-yl)-L-phenylalanine] | 7.30 to 8.00
Cn1c(=O)n(-c2ccc(C[C@H](NC(=O)c3cc(F)c(NS(=O)(=O)c4ccc(-n5cnnn5)cc4)cc3F)C(=O)O)nc2)c(=O)c2ccncc21 [Example 218, N-[2,5-Difluoro-4-({[4-(1H-tetrazol-1-yl)phenyl]sulfonyl}amino)benzoyl]-3-[5-(1-methyl-2,4-dioxo-1,4-dihydropyrido[3,4-d]pyrimidin-3(2H)-yl)pyridin-2-yl]-L-alanine] | 7.30 to 8.00
Cc1cc(C(=O)NC(C)(C)C)ccc1S(=O)(=O)Nc1cc(F)c(C(=O)N[C@@H](Cc2ccc(-n3c(=O)ccn(C)c3=O)cc2)C(=O)O)c(F)c1 [Example 158, N-{4-[({4-[(tert-Butylamino)carbonyl]-2-methylphenyl}sulfonyl)amino]-2,6-difluorobenzoyl}-4-(3-methyl-2,6-dioxo-3,6-dihydropyrimidin-1(2H)-yl)-L-phenylalanine] | ≥ 8.00
Cn1c(=O)n(-c2ccc(C[C@H](NC(=O)c3c(F)cc(NS(=O)(=O)c4ccc(-c5ccco5)cc4)cc3F)C(=O)O)nc2)c(=O)c2ccncc21 [Example 148, N-[2,6-Difluoro-4-({[4-(2-furyl)phenyl]sulfonyl}amino)benzoyl]-3-[5-(1-methyl-2,4-dioxo-1,4-dihydropyrido[3,4-d]pyrimidin-3(2H)-yl)pyridin-2-yl]-L-alanine] | 7.30 to 8.00
CCC(CC)NC(=O)c1ccc(S(=O)(=O)Nc2cc(F)c(C(=O)N[C@@H](Cc3ccc(-n4c(=O)ccn(C)c4=O)cc3)C(=O)O)c(F)c2)cc1 [Example 170, N-(4-{[(4-{[(1-Ethylpropyl)amino]carbonyl}phenyl)sulfonyl]amino}-2,6-difluorobenzoyl)-4-(3-methyl-2,6-dioxo-3,6-dihydropyrimidin-1(2H)-yl)-L-phenylalanine] | ≥ 8.00
Cn1ccc(=O)n(-c2ccc(C[C@H](NC(=O)c3c(F)cc(NS(=O)(=O)c4ccc(C(=O)NCC5CC5)cc4)cc3F)C(=O)O)cc2)c1=O [Example 157, N-(4-{[(4-{[(Cyclopropylmethyl)amino]carbonyl}phenyl)sulfonyl]amino}-2,6-difluorobenzoyl)-4-(3-methyl-2,6-dioxo-3,6-dihydropyrimidin-1(2H)-yl)-L-phenylalanine] | 7.30 to 8.00
Cn1c(=O)n(-c2ccc(C[C@H](NC(=O)c3c(F)cc(NS(=O)(=O)c4ccc(-c5ccsc5)cc4)cc3F)C(=O)O)nc2)c(=O)c2ccncc21 [Example 178, N-[2,6-Difluoro-4-({[4-(3-thienyl)phenyl]sulfonyl}amino)benzoyl]-3-[5-(1-methyl-2,4-dioxo-1,4-dihydropyrido[3,4-d]pyrimidin-3(2H)-yl)pyridin-2-yl]-L-alanine] | 7.30 to 8.00
CCOc1cc(-c2ncccn2)ccc1S(=O)(=O)Nc1cc(F)c(C(=O)N[C@@H](Cc2ccc(-n3c(=O)c4ccncc4n(C)c3=O)cn2)C(=O)O)c(F)c1 [Example 231, N-(4-{[(2-Ethoxy-4-pyrimidin-2-ylphenyl)sulfonyl]amino}-2,6-difluorobenzoyl)-3-[5-(1-methyl-2,4-dioxo-1,4-dihydropyrido[3,4-d]pyrimidin-3(2H)-yl)pyridin-2-yl]-L-alanine] | ≥ 8.00
Cn1c(=O)n(-c2ccc(C[C@H](NC(=O)c3cc(F)c(NS(=O)(=O)c4ccc(-n5cncn5)cc4)cc3F)C(=O)O)nc2)c(=O)c2ccncc21 [Example 224, N-[2,5-Difluoro-4-({[4-(1H-1,2,4-triazol-1-yl)phenyl]sulfonyl}amino)benzoyl]-3-[5-(1-methyl-2,4-dioxo-1,4-dihydropyrido[3,4-d]pyrimidin-3(2H)-yl)pyridin-2-yl]-L-alanine] | 7.30 to 8.00
Cn1c(=O)n(-c2ccc(C[C@H](NC(=O)c3cc(F)c(NS(=O)(=O)c4ccc(-n5cncn5)cc4)cc3F)C(=O)O)cc2)c(=O)c2ccncc21 [Example 225, N-[2,5-Difluoro-4-({[4-(1H-1,2,4-triazol-1-yl)phenyl]sulfonyl}amino)benzoyl]-4-(1-methyl-2,4-dioxo-1,4-dihydropyrido[3,4-d]pyrimidin-3(2H)-yl)-L-phenylalanine] | 7.30 to 8.00
Cn1c(=O)n(-c2ccc(C[C@H](NC(=O)c3c(F)cc(NS(=O)(=O)c4ccccc4O)cc3F)C(=O)O)nc2)c(=O)c2ccncc21 [Example 185, N-(2,6-Difluoro-4-{[(2-hydroxyphenyl)sulfonyl]amino}benzoyl)-3-[5-(1-methyl-2,4-dioxo-1,4-dihydropyrido[3,4-d]pyrimidin-3(2H)-yl)pyridin-2-yl]-L-alanine] | 7.30 to 8.00
